Test system: MF patients
Assay: Phase 1/2 clinical study in MF patients treated with HCl salt of Compound (1) (TP-3654-102)
Assay type: in vivo, human
Parameters: reduction in IL6 / reduction in IL12p40 / reduction in MMP9 / reduction in EN-RAGE / median TSS reduction from baseline: concentration or dose not given beside the values
Description: Patients with MF (primary MF, post-PV MF, post-ET MF) and DIPSS intermediate-1, intermediate-2, or high risk were enrolled in a Phase 1/2 clinical study.
Dose escalation to 960 mg BID and 1440 mg BID is intended.
Patients had to meet all of the following inclusion criteria to enroll in the study: • 1. Adult (≥18 years of age) • 2. Confirmed pathological diagnosis of primary MF (PMF) or post-PV-MF/postET-MF as per WHO diagnostic criteria and intermediate or high-risk primary or secondary MF based on the Dynamic International Prognostic Scoring System (DIPSS). • 3. Previously treated with a JAK inhibitor and are intolerant, resistant, refractory or lost response to the JAK inhibitor, or are ineligible to be treated with ruxolitinib or fedratinib at the discretion of the investigator. • 4. Grade≥2 bone marrow fibrosis, as confirmed by bone marrow biopsy within 12 weeks prior to Screening. • 5. Fulfill the following laboratory parameters: • a. Platelet count≥25×10^9/L (without the assistance of growth factors or platelet transfusions) • b. Absolute neutrophil count (ANC)≥1×10^9/L without the assistance of granulocyte growth factors. • 6. Peripheral blood blast count<10%. • 7. Eastern Cooperative Oncology Group (ECOG) performance status≤2. • 8. Life expectancy≥3 months. • 9. […] Adequate hepatic function (ALT/AST≤3×ULN, total bilirubin≤1.5×ULN; or ALT/AST≤5×ULN, direct bilirubin≤2×ULN if due to MF); and coagulation ([PT and PTT]≤1.5×ULN). • 11. Agree to provide bone marrow biopsies during the study: at baseline or within 12 weeks prior to enrollment, and every 6 months during treatment. • 12. Capable of providing signed informed consent as described in which includes compliance with the requirements and restrictions listed in the informed consent form (ICF) and in this protocol • 13. […] Show at least 2 symptoms measurable (score≥1) using the Myelofibrosis Symptom Assessment Form (MFSAF), v4.0. • 16. Able to take orally administered medication
Patients meeting any one of the exclusion criteria were prohibited from participating in the study: • 1. Received previous systemic antineoplastic therapy (including unconjugated therapeutic antibodies, toxin immunoconjugates, ESA, and alpha-interferon) or any experimental therapy within 14 days or 5 half-lives, whichever is longer, before the first dose of study treatment. • 2. Major surgery within 2 weeks before the first dose of either study drug. • 3. Splenic irradiation within 6 months prior to Screening or prior splenectomy. • 4. AML, MDS, or peripheral blasts≥10%. • 5. Prior autologous or allogeneic stem cell transplant at any time. • 6. Eligible for allogeneic bone marrow or stem cell transplantation within 3 months following enrollment (not a candidate or not willing to undergo transplantation or a suitable donor not available are considered as transplant ineligible). • 7. Currently receiving treatment with a prohibited medication that cannot be discontinued at least one week prior to the start of treatment. • 8. Experiencing electrolyte abnormalities of NCI CTCAE Grade≥2 (e.g., serum potassium, magnesium and calcium) unless they can be corrected during screening and are deemed not clinically significant by the Investigator. • 9. History of congestive heart failure, myocardial infarction within the past 6 months prior to Cycle 1/Day 1; left ventricular ejection fraction<45% by echocardiogram or MUGA, unstable arrhythmia, or evidence of ischemia on electrocardiogram (ECG) within 14 days prior to Cycle 1/Day 1. • 10. Corrected QT interval (using Fridericia's correction formula) of >450 msec in men and >470 msec in women. • 11. Central nervous system (CNS) cancer or metastases, meningeal carcinomatosis, malignant seizures, or a disease that either causes or threatens neurologic compromise (e.g., unstable vertebral metastases). • 12. Other invasive malignancies within the last 3 years, except non-melanoma skin cancer, and localized cured prostate and cervical cancer • 13. […]

[1] = R/R MF, ≥25 × 10^9/L PLT, monotherapy
[2] = TP-3654-102, R/R MF, monotherapy, N = 23
[3] = first interim analysis, FIG. 5G
[4] = first interim analysis, monotherapy, 480 mg QD to 720 mg BID
[5] = first interim analysis, over treatment duration
[6] = first interim analysis, treatment duration ≥12 weeks
[7] = one patient with bone marrow fibrosis reduction
[8] = second interim analysis, MFSAF v4.0
[9] = second interim analysis, n = 13

Compound: CC(C)(O)[C@H]1CC[C@H](Nc2ccc3ncc(-c4cccc(C(F)(F)F)c4)n3n2)CC1 [Compound (1)]
- Hem AE (>10%), thrombocytopenia (R/R MF, Ph 1): No ≥G3
- SVR35 at Week 24 [1]: 23%
- TSS50 at Week 24 [1]: 54%
- TEAE Anemia, All Gr [2]: 13%
- TEAE Anemia, ≥3 Gr [2]: 4.3%
- TEAE Neutropenia, All Gr [2]: 0%
- TEAE Neutropenia, ≥3 Gr [2]: 0%
- TEAE Thrombocytopenia, All Gr [2]: 22%
- TEAE Thrombocytopenia, ≥3 Gr [2]: 13%
- patients with myelosuppressive adverse events (anemia, neutropenia, thrombocytopenia) (first interim analysis): 1 patient
- time at which cytokine modulation was observed (as early as) (first interim analysis): ≤ 24 h
- patients with reduced spleen size and reduced symptoms [3]: 4 patients
- patients with spleen volume increase and reduced symptoms [3]: 1 patient
- patients with spleen volume reduction and increased symptoms [3]: 1 patient
- reductions in cytokines vs total symptoms reduction (first interim analysis, cytokine changes available for 7 patients): More reductions in cytokines were observed in patients who had more total symptoms reduction
- hemoglobin [4]: increased in some patients
- neutrophil counts [4]: stable
- platelet counts [4]: stable or increased
- spleen volume, median best change [5]: −13%
- total symptom score, median best change [5]: −70%
- patients with spleen volume reduction [6]: Eight out of 10
- patients with total symptom reduction [6]: Nine out of 10
- change for platelet count, hemoglobin, and neutrophil reduction (for most patients, monotherapy): less than 1 grade
- reduction in EN-RAGE [7]: 68%
- reduction in IL12p40 [7]: 83%
- reduction in MMP9 [7]: 56%
- reduction in IL6 (one patient with bone marrow fibrosis reduction, printed 1L6): 68%
- bone marrow fibrosis reduction (one patient, on active treatment >18 months): from grade 3 to 2
- overlapping hematological toxicities (thrombocytopenia and/or anemia) (relative to toxicities reported for other MF treatments): minimal or no indication of overlapping hematological toxicities
- patients achieving ≥35% SVR (number) (second interim analysis): 3 of 13
- median spleen volume change (second interim analysis, 13 evaluable patients): −11%
- dose limiting toxicities (second interim analysis, 23 patients, 5 dose levels): no dose limiting toxicities
- median TSS reduction from baseline [8]: 70%
- patients with TSS reduction [8]: 12 out of 13
- patients with ≥50% TSS reduction (number) [8]: Seven of 13
- patients achieving ≥35% SVR (percent) [9]: 23%
- patients with ≥50% TSS reduction (percent) [9]: 54%
- patients with ≥50% TSS reduction and durable response for ≥12 weeks (second interim analysis, of seven patients with ≥50% TSS reduction): 5 patients
- patients with spleen volume reduction (SVR) (second interim analysis, ≥12 weeks of treatment, 13 evaluable): 10 patients
- doses declared safe (second interim analysis, printed mg BTD): up to 720 mg

— US20260306490A1, “PIM1 INHIBITOR FOR TREATING MYELOPROLIFERATIVE NEOPLASMS” (Sumitomo Pharma America, Inc., priority 2022, published 2026)
